Test results as given in ChEMBL document CHEMBL1201862, “PubChem BioAssay data set” (2004).
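Each compound was tested at five concentrations against cells in 96-well plates for 48 hours. GI50 marks 50% less growth.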 Calls of active or inactive are those of the source. Rule as the data show it: active = GI50 up to about 1.1 µM and inactive = higher.

Key:
Test in all cases: NCI tumour cell line growth inhibition, 48 h
COLO 205 = system: COLO 205
HT-29 = system: HT-29
NCI-H460 = system: NCI-H460
OVCAR-3 = system: OVCAR-3
SF-268 = system: SF-268
UO-31 = system: UO-31

Measured: GI50

NC(=O)N/C=C1\C(=O)Oc2ccccc2C1=O
inactive: COLO 205 > 100 µM | HT-29 > 100 µM | NCI-H460 > 100 µM | OVCAR-3 84.7 µM | SF-268 95.7 µM | UO-31 31.9 µM
